Where a name gives a salt, the structure may show the parent alone.
Tests used:
human TLR8 = human TLR8 (Homo sapiens (Human), UniProt Q9NR97); assay: HEK-Blue human TLR8 SEAP reporter assay; type: cell-based; settings: HEK-Blue human TLR8 cells, NF-κB-regulated SEAP reporter, stimulation for 24 hr
Description: (§1) For TLR8 and TLR7 activity testing, HEK-Blue human TLR8 or TLR7 cells, respectively, (Invivogen, San Diego, Calif., USA) transfected with a SEAP reporter (secreted embryonic alkaline phosphatase) construct were used, in which the reporter expression is regulated by the NF-κB promoter upon stimulation for 24 hr. The reporter activity was determined using Quanti Blue kit (Invivogen, San Diego, Calif., USA) at a wavelength of 640 nm.
(§2) EC50 values were determined using Activity Base analysis (ID Business Solution, Limited).

human TLR7 = human TLR7 (Homo sapiens (Human), UniProt Q9NYK1); assay: HEK-Blue human TLR7 SEAP reporter assay; type: cell-based; settings: for EC50: HEK-Blue human TLR7 cells, NF-κB-regulated SEAP reporter, stimulation for 24 hr
Description: as §1, §2

Sequence of human TLR7 (Q9NYK1 27-1049): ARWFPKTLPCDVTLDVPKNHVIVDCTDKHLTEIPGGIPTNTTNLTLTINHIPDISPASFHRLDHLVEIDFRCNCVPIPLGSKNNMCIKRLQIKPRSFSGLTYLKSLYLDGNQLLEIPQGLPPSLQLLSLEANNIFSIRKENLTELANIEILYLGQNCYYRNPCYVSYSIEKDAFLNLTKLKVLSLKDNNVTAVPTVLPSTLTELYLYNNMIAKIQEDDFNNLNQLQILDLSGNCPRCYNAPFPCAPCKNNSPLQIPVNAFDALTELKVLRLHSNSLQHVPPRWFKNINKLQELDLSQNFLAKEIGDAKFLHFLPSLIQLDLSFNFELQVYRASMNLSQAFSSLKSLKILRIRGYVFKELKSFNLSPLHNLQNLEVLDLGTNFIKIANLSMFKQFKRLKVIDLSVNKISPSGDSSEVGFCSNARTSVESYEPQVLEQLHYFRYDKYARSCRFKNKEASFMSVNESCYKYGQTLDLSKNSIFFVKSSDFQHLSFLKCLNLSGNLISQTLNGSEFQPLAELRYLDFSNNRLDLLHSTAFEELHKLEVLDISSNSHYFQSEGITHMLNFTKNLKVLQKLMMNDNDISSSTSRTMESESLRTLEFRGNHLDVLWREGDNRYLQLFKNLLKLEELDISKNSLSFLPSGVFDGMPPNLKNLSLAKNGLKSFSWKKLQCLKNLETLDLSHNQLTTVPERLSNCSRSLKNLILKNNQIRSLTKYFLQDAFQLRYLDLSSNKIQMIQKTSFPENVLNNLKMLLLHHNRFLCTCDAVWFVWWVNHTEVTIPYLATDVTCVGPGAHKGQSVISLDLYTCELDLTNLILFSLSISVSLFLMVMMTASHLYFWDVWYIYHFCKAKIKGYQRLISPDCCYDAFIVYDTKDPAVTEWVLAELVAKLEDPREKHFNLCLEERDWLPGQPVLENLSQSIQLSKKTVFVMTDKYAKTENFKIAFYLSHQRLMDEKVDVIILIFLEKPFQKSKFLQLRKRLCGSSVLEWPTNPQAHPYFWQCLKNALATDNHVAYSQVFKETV
Sequence of human TLR8 (Q9NR97 27-1041): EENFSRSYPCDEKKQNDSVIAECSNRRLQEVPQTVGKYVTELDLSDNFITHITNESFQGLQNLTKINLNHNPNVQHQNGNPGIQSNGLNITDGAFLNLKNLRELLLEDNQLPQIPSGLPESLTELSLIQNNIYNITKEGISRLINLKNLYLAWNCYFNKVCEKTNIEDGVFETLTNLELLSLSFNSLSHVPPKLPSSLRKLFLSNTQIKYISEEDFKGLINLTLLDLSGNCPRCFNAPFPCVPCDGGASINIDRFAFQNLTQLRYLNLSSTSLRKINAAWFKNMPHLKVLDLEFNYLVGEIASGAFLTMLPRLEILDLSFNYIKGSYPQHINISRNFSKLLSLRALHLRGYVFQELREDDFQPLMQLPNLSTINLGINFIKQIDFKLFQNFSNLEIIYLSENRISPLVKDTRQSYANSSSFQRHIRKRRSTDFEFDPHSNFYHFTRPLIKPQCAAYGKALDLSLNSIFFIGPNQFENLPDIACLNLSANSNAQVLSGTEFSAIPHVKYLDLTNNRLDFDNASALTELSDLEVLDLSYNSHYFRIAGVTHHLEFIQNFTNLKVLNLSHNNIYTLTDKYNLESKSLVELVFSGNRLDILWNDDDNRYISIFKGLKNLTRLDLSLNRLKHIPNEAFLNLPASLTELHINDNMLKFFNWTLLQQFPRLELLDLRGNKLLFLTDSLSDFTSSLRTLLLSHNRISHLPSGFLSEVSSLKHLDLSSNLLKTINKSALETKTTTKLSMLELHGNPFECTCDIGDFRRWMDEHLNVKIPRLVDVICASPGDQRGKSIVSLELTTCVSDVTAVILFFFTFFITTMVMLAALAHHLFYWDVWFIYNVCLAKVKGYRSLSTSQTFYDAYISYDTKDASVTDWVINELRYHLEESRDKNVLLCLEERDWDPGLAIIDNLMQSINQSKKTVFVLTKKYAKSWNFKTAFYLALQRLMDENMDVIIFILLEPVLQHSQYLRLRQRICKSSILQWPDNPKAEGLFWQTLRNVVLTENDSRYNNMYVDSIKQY

| Compound | EC50 (human TLR8) | EC50 (human TLR7) | cellular potency at TLR7 (human TLR7; statement in words, compared with resiquimod) |
| --- | --- | --- | --- |
| CCOCc1nc2c(N)nc3ccccc3c2n1CCOCCN [1-(2-(2-Aminoethoxy)ethyl)-2-(ethoxymethyl)-1H-imidazo[4,5-c]quinolin-4-amine, reference compound] | 49 µM | > 100 µM | do not show the required activity |
| CCOCc1nc2c(N)nc3ccccc3c2n1CC(C)(C)OCCNCCCO [Example 5, 3-(2-(1-(4-Amino-2-(ethoxymethyl)-1H-imidazo[4,5-c]quinolin-1-yl)-2-methylpropan-2-yloxy)ethylamino)propan-1-ol] | 10.5 µM | 0.9 µM | – |
| CCOCc1nc2c(N)nc3ccccc3c2n1CC(C)(C)OCCNC(=O)c1cccnc1 [Example 3, N-(2-(1-(4-Amino-2-(ethoxymethyl)-1H-imidazo[4,5-c]quinolin-1-yl)-2-methylpropan-2-yloxy)ethyl)nicotinamide] | 35 µM | 0.223 µM | – |
| CCOCc1nc2c(N)nc3cc(CCC(=O)OCC)ccc3c2n1CC(C)(C)OC(=O)CN [Example 9, Ethyl 3-(4-amino-1-(2-(2-aminoacetoxy)-2-methylpropyl)-2-(ethoxymethyl)-1H-imidazo[4,5-c]quinolin-7-yl)propanoate] | 0.054 µM | 0.055 µM | – |
| CCCCCc1nc2c(N)nc3ccccc3c2n1CC(C)(C)OCCN [Example 10, 1-(2-(2-Aminoethoxy)-2-methylpropyl)-2-pentyl-1H-imidazo[4,5-c]quinolin-4-amine] | 2.7 µM | 0.152 µM | – |
| CCOCc1nc2c(N)nc3ccccc3c2n1CC(C)(C)OCCNC(=O)CCCCCNC(=O)OC(C)(C)C [Example 6, tert-Butyl 6-(2-(1-(4-amino-2-(ethoxymethyl)-1H-imidazo[4,5-c]quinolin-1-yl)-2-methylpropan-2-yloxy)ethylamino)-6-oxohexylcarbamate] | 2.9 µM | 0.195 µM | – |

The next lines start with the values.

| EC50 (human TLR8) | EC50 (human TLR7) | cellular potency at TLR7 (human TLR7; statement in words, compared with resiquimod) | Compound |
| --- | --- | --- | --- |
| 1.08 µM | 0.139 µM | – | CCOCc1nc2c(N)nc3cc(/C=C/C(=O)OCC)ccc3c2n1CC(C)(C)OCCN [Example 7, (E)-Ethyl 3-(4-amino-1-(2-(2-aminoethoxy)-2-methylpropyl)-2-(ethoxymethyl)-1H-imidazo[4,5-c]quinolin-7-yl)acrylate] |
| – | 0.027 µM | – | CCOCc1nc2c(N)nc3ccccc3c2n1CC(C)(C)OCCNC(C)=O [Example 4, N-(2-(1-(4-Amino-2-(ethoxymethyl)-1H-imidazo[4,5-c]quinolin-1-yl)-2-methylpropan-2-yloxy)ethyl)acetamide] |
| 2.9 µM | 0.13 µM | – | CCOCc1nc2c(N)nc3cc(Br)ccc3c2n1CC(C)(C)OCCN [Example 11, 1-(2-(2-Aminoethoxy)-2-methylpropyl)-7-bromo-2-(ethoxymethyl)-1H-imidazo[4,5-c]quinolin-4-amine hydrochloride] |
| 0.58 µM | 0.06 µM | – | CCOCc1nc2c(N)nc3ccccc3c2n1CC(C)(C)OCCN [Example 1, 1-(2-(2-Aminoethoxy)-2-methylpropyl)-2-(ethoxymethyl)-1H-imidazo[4,5-c]quinolin-4-amine] |
| 0.256 µM | 0.134 µM | – | CCOCc1nc2c(N)nc3cc(CCC(=O)OCC)ccc3c2n1CC(C)(C)OCCN [Example 8, Ethyl 3-(4-amino-1-(2-(2-aminoethoxy)-2-methylpropyl)-2-(ethoxymethyl)-1H-imidazo[4,5-c]quinolin-7-yl)propanoate hydrochloride] |
| 0.08 µM | 0.05 µM | – | CCOCc1nc2c(N)nc3ccccc3c2n1CC(C)(C)OC(=O)CN [Example 2, 1-(4-Amino-2-(ethoxymethyl)-1H-imidazo[4,5-c]quinolin-1-yl)-2-methylpropan-2-yl 2-aminoacetate] |

Reference: patent publication US9334268B2, “4-amino-imidazoquinoline compounds” (Hoffmann-La Roche Inc., priority 2014, dated 2016)
